pIC50: −log10 of the molar value.
What was measured:
human CCR2 = target: T1, human CCR2 (Homo sapiens, UniProt P41597); assay: Functional Ca2+ release test (B-1); format: cell-based; details: Chem-1 cell line transfected with human CCR2; 50% inhibition of the MCP-1 effect, MCP-1 at EC50 (about 5 nM); in some cases means of several determinations
T1 construct: host or cells: Chem-1 cell line
T1 sequence (P41597 1-360 isoform P41597-2): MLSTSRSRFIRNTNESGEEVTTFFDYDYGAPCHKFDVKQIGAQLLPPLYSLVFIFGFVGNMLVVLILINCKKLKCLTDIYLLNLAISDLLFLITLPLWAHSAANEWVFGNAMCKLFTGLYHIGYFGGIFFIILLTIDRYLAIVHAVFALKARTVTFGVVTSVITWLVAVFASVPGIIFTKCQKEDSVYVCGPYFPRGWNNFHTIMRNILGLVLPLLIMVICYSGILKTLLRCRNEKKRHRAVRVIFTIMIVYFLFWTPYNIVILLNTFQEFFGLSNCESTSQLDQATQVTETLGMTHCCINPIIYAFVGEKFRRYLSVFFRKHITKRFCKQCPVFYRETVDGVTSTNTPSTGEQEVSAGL
Procedure, shortened: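 Chem-1 cells expressing human CCR2, loaded with Fluo-4 for 60 min at 37° C, were preincubated 10 min with compound (10-point, 1:3.16 dilutions), then stimulated with MCP-1 at its predetermined EC50 (about 5 nM). Ca2+ release was monitored for 120 s. IC50 came from a 4-parameter Hill fit.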

murine CCR2 = target: T2, murine CCR2 (Mus musculus, UniProt P51683); assay: Functional β-arrestin recruiting test with murine MCP-1 (B-2b); format: cell-based; details: U2OS β-arrestin cell line transfected with murine CCR2; agonist murine MCP-1; in some cases means of several determinations
T2 construct: host or cells: U2OS β-arrestin cell line
T2 sequence (P51683 whole entry): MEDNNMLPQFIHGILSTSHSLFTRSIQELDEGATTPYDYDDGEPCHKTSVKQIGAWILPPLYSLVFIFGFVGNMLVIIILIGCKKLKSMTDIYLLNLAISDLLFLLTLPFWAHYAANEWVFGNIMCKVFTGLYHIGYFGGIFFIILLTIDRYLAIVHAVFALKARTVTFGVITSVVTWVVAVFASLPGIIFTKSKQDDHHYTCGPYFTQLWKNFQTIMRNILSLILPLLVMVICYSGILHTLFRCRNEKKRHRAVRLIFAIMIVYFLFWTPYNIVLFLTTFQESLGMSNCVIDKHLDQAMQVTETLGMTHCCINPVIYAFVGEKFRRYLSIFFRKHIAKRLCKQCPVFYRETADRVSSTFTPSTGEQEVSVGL
Procedure, shortened: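 In a PathHunter β-galactosidase complementation assay, U2OS cells expressing murine CCR2 were preincubated 10 min with compound (10-point, 1:3.16 dilutions), then challenged with murine MCP-1 at its predetermined EC50 for 90 min at 37 °C. Luminescence was read after 60 min, and IC50 was fitted with a 4-parameter Hill function.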

Nc1ccn(-c2nc(C(F)(F)F)c(Oc3ccc(Cl)c(Cl)c3)c(=O)[nH]2)n1 [Example 256, 2-(3-Amino-1H-pyrazol-1-yl)-5-(3,4-dichlorophenoxy)-6-(trifluoromethyl)pyrimidin-4(3H)-one]
pIC50 (human CCR2): 9.10
pIC50 (murine CCR2): 7.00

COc1cnn(-c2nc(C(F)(F)F)c(Oc3ccc(Cl)c(Cl)c3)c(=O)[nH]2)c1 [Example 249]
pIC50 (human CCR2): 9.05
pIC50 (murine CCR2): 6.60

O=c1[nH]c(-c2ccnnc2)nc(C(F)(F)F)c1Oc1ccc(Cl)c(Cl)c1 [Example 126, 5-(3,4-dichlorophenoxy)-2-(pyridazin-4-yl)-6-(trifluoromethyl)pyrimidin-4(3H)-one]
pIC50 (human CCR2): 5.95
pIC50 (murine CCR2): 4.86

Cn1nc(-c2nc(C(F)(F)F)c(Oc3ccc(Cl)c(C(F)(F)F)c3)c(=O)[nH]2)c2cccnc21 [Example 206]
pIC50 (human CCR2): 7.92
pIC50 (murine CCR2): 5.70

O=c1[nH]c(-c2ncccc2Cl)nc(C(F)(F)F)c1Oc1ccc(Cl)cc1 [Example 210]
pIC50 (human CCR2): 8.52
pIC50 (murine CCR2): 6.46

CCc1cccc(-c2nc(C(F)(F)F)c(Oc3ccc(Cl)c(Cl)c3)c(=O)[nH]2)n1 [Example 162, 2-(6-ethylpyridin-2-yl)-5-(3,4-dichlorophenoxy)-6-(trifluoromethyl)pyrimidin-4(3H)-one]
pIC50 (human CCR2): 8.72
pIC50 (murine CCR2): 5.97

Cc1cnc(-c2nc(C(F)(F)F)c(Oc3ccc(Cl)c(Cl)c3)c(=O)[nH]2)[nH]1 [Example 241]
pIC50 (human CCR2): 9.10
pIC50 (murine CCR2): 7.12

Cc1cnc(-c2nc(C(F)(F)F)c(Oc3ccc(Cl)c(C(F)(F)F)c3)c(=O)[nH]2)[nH]1 [Example 242]
pIC50 (human CCR2): 8.74
pIC50 (murine CCR2): 6.82

CSc1cnn(-c2nc(C(F)(F)F)c(Oc3ccc(Cl)c(Cl)c3)c(=O)[nH]2)c1 [Example 248]
pIC50 (human CCR2): 8.66
pIC50 (murine CCR2): 5.91

CC(C)(C)Oc1ccnc(-c2nc(C(F)(F)F)c(Oc3ccc(Cl)c(Cl)c3)c(=O)[nH]2)c1 [Example 159, 2-(4-tert-butoxypyridin-2-yl)-5-(3,4-dichlorophenoxy)-6-(trifluoromethyl)pyrimidin-4(3H)-one]
pIC50 (human CCR2): 7.21
pIC50 (murine CCR2): 5.61

Cc1ccc(-c2nc(C(F)(F)F)c(Oc3ccc(Cl)c(Cl)c3)c(=O)[nH]2)nc1C [Example 157, 5-(3,4-dichlorophenoxy)-2-(5,6-dimethylpyridin-2-yl)-6-(trifluoromethyl)pyrimidin-4(3H)-one]
pIC50 (human CCR2): 7.85
pIC50 (murine CCR2): 5.82

CNc1cccc(-c2nc(C(F)(F)F)c(Oc3ccc(Cl)c(C(F)(F)F)c3)c(=O)[nH]2)n1 [Example 167, 5-[4-chloro-3-(trifluoromethyl)phenoxy]-2-[6-(methylamino)pyridin-2-yl]-6-(trifluoromethyl)pyrimidin-4(3H)-one]
pIC50 (human CCR2): 8.57
pIC50 (murine CCR2): 6.82

O=c1[nH]c(-n2cncn2)nc(C(F)(F)F)c1Oc1ccc(Cl)c(Cl)c1 [Example 255, 5-(3,4-Dichlorophenoxy)-2-(1H-1,2,4-triazol-1-yl)-6-(trifluoromethyl)pyrimidin-4(3H)-one]
pIC50 (human CCR2): 7.42
pIC50 (murine CCR2): 5.87

O=c1[nH]c(-c2ncccc2C(F)(F)F)nc(C(F)(F)F)c1Oc1ccc(Cl)c(Cl)c1 [Example 185, 5-(3,4-dichlorophenoxy)-6-(trifluoromethyl)-2-[3-(trifluoromethyl)pyridin-2-yl]pyrimidin-4(3H)-one]
pIC50 (human CCR2): 7.57
pIC50 (murine CCR2): 6.39

Nc1ncc(-c2nc(C(F)(F)F)c(Oc3ccc(Cl)c(C(F)(F)F)c3)c(=O)[nH]2)cn1 [Example 155, 2′-amino-5-[4-chloro-3-(trifluoromethyl)phenoxy]-6-(trifluoromethyl)-2,5′-bipyrimidin-4(3H)-one]
pIC50 (human CCR2): 7.64
pIC50 (murine CCR2): 5.97

COc1nc(N)n(-c2nc(C(F)(F)F)c(Oc3ccc(Cl)c(Cl)c3)c(=O)[nH]2)n1 [Example 254]
pIC50 (human CCR2): 7.82
pIC50 (murine CCR2): 6.21

O=c1[nH]c(-c2ccncc2Cl)nc(C(F)(F)F)c1Oc1ccc(Cl)c(C(F)(F)F)c1 [Example 131, 2-(3-chloropyridin-4-yl)-5-[4-chloro-3-(trifluoromethyl)phenoxy]-6-(trifluoromethyl)pyrimidin-4(3H)-one]
pIC50 (human CCR2): 8.55
pIC50 (murine CCR2): 6.80

Cc1ccc(Oc2c(C(F)(F)F)nc(-c3cc[nH]n3)[nH]c2=O)cc1Cl [Example 224]
pIC50 (human CCR2): 9.52
pIC50 (murine CCR2): 7.33

CCn1ccc(-c2nc(C(F)(F)F)c(Oc3ccc(Cl)c(C(F)(F)F)c3)c(=O)[nH]2)n1 [Example 240]
pIC50 (human CCR2): 9.30
pIC50 (murine CCR2): 6.97

COc1ccnc(-c2nc(C(F)(F)F)c(Oc3ccc(Cl)c(Cl)c3)c(=O)[nH]2)c1 [Example 147, 5-(3,4-dichlorophenoxy)-2-(4-methoxypyridin-2-yl)-6-(trifluoromethyl)pyrimidin-4(3H)-one]
pIC50 (human CCR2): 6.92
pIC50 (murine CCR2): 6.43

CS(=O)(=O)c1cccnc1-c1nc(C(F)(F)F)c(Oc2ccc(Cl)c(Cl)c2)c(=O)[nH]1 [Example 268, 5-(3,4-Dichlorophenoxy)-2-[3-(methylsulphonyl)pyridin-2-yl]-6-(trifluoromethyl)pyrimidin-4(3H)-one]
pIC50 (human CCR2): 8.24
pIC50 (murine CCR2): 6.32

CN(C)c1ccc(-c2nc(C(F)(F)F)c(Oc3ccc(Cl)c(C(F)(F)F)c3)c(=O)[nH]2)nc1 [Example 134, 5-[4-chloro-3-(trifluoromethyl)phenoxy]-2-[5-(dimethylamino)pyridin-2-yl]-6-(trifluoromethyl)pyrimidin-4(3H)-one]
pIC50 (human CCR2): 8.68
pIC50 (murine CCR2): 7.29

CC(C)Oc1ccc(-c2nc(C(F)(F)F)c(Oc3ccc(Cl)c(Cl)c3)c(=O)[nH]2)cn1 [Example 163, 5-(3,4-dichlorophenoxy)-2-(6-isopropoxypyridin-3-yl)-6-(trifluoromethyl)pyrimidin-4(3H)-one]
pIC50 (human CCR2): 6.89
pIC50 (murine CCR2): 5.11

O=c1[nH]c(-c2ccsn2)nc(C(F)(F)F)c1Oc1ccc(Cl)c(C(F)(F)F)c1 [Example 234]
pIC50 (human CCR2): 9.52
pIC50 (murine CCR2): 7.57

O=c1[nH]c(-c2ncccc2-c2ccccc2)nc(C(F)(F)F)c1Oc1ccc(Cl)c(Cl)c1 [Example 187, 5-(3,4-dichlorophenoxy)-2-(3-phenylpyridin-2-yl)-6-(trifluoromethyl)pyrimidin-4(3H)-one]
pIC50 (human CCR2): 7.80
pIC50 (murine CCR2): 5.80

COc1cn(C)nc1-c1nc(C(F)(F)F)c(Oc2ccc(Cl)c(C(F)(F)F)c2)c(=O)[nH]1 [Example 264, 5-[4-Chloro-3-(trifluoromethyl)phenoxy]-2-(4-methoxy-1-methyl-1H-pyrazol-3-yl)-6-(trifluoromethyl)pyrimidin-4(3H)-one]
pIC50 (human CCR2): 9.40
pIC50 (murine CCR2): 7.28

O=c1[nH]c(-n2ccc(C(F)(F)F)n2)nc(C(F)(F)F)c1Oc1ccc(Cl)c(Cl)c1 [Example 252]
pIC50 (human CCR2): 6.95
pIC50 (murine CCR2): 5.16

COc1cncnc1-c1nc(C(F)(F)F)c(Oc2ccc(Cl)c(C(F)(F)F)c2)c(=O)[nH]1 [Example 120, 5-[4-chloro-3-(trifluoromethyl)phenoxy]-5′-methoxy-6-(trifluoromethyl)-2,4′-bipyrimidin-4(3H)-one]
pIC50 (human CCR2): 9.30
pIC50 (murine CCR2): 7.36

CSc1ccnc(-c2nc(C(F)(F)F)c(Oc3ccc(Cl)c(Cl)c3)c(=O)[nH]2)c1 [Example 192, 5-(3,4-dichlorophenoxy)-2-[4-(methylsulphanyl)pyridin-2-yl]-6-(trifluoromethyl)pyrimidin-4(3H)-one]
pIC50 (human CCR2): 7.96
pIC50 (murine CCR2): 6.12

COc1nn(C)cc1-c1nc(C(F)(F)F)c(Oc2ccc(Cl)c(Cl)c2)c(=O)[nH]1 [Example 236]
pIC50 (human CCR2): 6.16
pIC50 (murine CCR2): 6.14

COc1cccnc1-c1nc(C(F)(F)F)c(Oc2ccc(Cl)c(OC(F)(F)F)c2)c(=O)[nH]1 [Example 138]
pIC50 (human CCR2): 8.85
pIC50 (murine CCR2): 6.39

Nc1cnc2cnn(-c3nc(C(F)(F)F)c(Oc4ccc(Cl)c(Cl)c4)c(=O)[nH]3)c2c1 [Example 257]
pIC50 (human CCR2): 8.55
pIC50 (murine CCR2): 6.56

O=c1[nH]c(-c2ncccc2C(F)(F)F)nc(C(F)(F)F)c1Oc1ccc(Cl)c(C(F)(F)F)c1 [Example 186, 5-[4-chloro-3-(trifluoromethyl)phenoxy)-6-(trifluoromethyl)-2-[3-(trifluoromethyl)pyridin-2-yl]pyrimidin-4(3H)-one]
pIC50 (human CCR2): 8.32
pIC50 (murine CCR2): 6.29

COc1c[nH]nc1-c1nc(C(F)(F)F)c(Oc2ccc(Cl)c(C(F)(F)F)c2)c(=O)[nH]1 [Example 214, 5-[4-chloro-3-(trifluoromethyl)phenoxy)-2-(4-methoxy-1H-pyrazol-3-yl)-6-(trifluoromethyl)pyrimidin-4(3H)-one]
pIC50 (human CCR2): 9.22
pIC50 (murine CCR2): 8.07

CSc1cccnc1-c1nc(C(F)(F)F)c(Oc2ccc(Cl)c(Cl)c2)c(=O)[nH]1 [Example 115, 5-(3,4-dichlorophenoxy)-2-[3-(methylsulphanyl)pyridin-2-yl]-6-(trifluoromethyl)pyrimidin-4(3H)-one]
pIC50 (human CCR2): 9.70
pIC50 (murine CCR2): 8.12

O=c1[nH]c(-n2cnc(Cl)n2)nc(C(F)(F)F)c1Oc1ccc(Cl)c(Cl)c1 [Example 247]
pIC50 (human CCR2): 6.91
pIC50 (murine CCR2): 5.26
